One test deals with 293T-CBS WT cells. Nature of the test: cell viability of stable HEK293T lines. Type of test: cell-based. The procedure:
(§1) Fig. 4 CH004 arrests the cell cycle at the S phase. a CH004 reduces the cell viability of HEK293T and HepG2 cells. HEK293T or HepG2 cells were treated with indicated concentrations of CH004 for 24 h before the cell number was analyzed using the CellTiter96® Aqueous One Solution Cell Proliferation Assay (Promega, Materials and Methods). The means at each concentration of one representative experiment are shown as percentages of DMSO (control, 100%). Means ± SDs (n = 3). b Overexpression of hCBS or knock-down of hCBS counteracts the growth inhibition exerted by CH004 in HEK293T cells. Indicated HEK293T stable cell lines were treated with the CH004 or DMSO for 24 h. Then, the cell viability was quantified with the CellTiter 96® Aqueous One Solution Cell Proliferation Assay under the standard protocol (Promega). The means at each concentration are shown as percentages of their respective DMSO controls (100%). Means ± SDs (n = 3). The efficacy for CBS overexpression and knock-down in HEK293T cells was determined by Western blotting using an anti-CBS antibody (3E1, 1:2000; Abnova). c CH004 induces cell death in HEK293T and HepG2 cells. […] The means of percentages of dead cells (DMSO, 100%) from three independent samples are shown in d. Means ± SDs (n = 3). e, f Pharmacological inhibition or genetic knock-down of hCBS in HEK293T cells arrests the cell cycle at S phase. HEK293T cells were incubated with indicated compounds for 12 h, and the DNA content was quantified with propidium iodide to analyze the cell cycle distribution by flow cytometry (e). The cell cycle distributions for HEK293T-shNT and HEK293T-shCBS cells were accordingly analyzed and are shown in f. One representative diagram is shown for each condition. The mean percentages of various cell phases from three independent samples are shown in the respective right panels. Means ± SDs (n = 3). Statistical analyses were performed by two-way ANOVA with Bonferroni post-tests. *p < 0.05; **p < 0.01; ***p < 0.001.
(§2) HEK293T cells stably expressing hCBS-FL WT or Q222A mutant were generated using lentiviral particles carrying pCDH-hCBS or pCDH empty vector (EV) and pPACK Packaging Plasmid Mix (SBI, Mountain View, CA, USA) according to the manufacturer’s instructions. Similarly, CBS-knock-down HEK293T cells or control cells were obtained using the miRzip lentiviral vector according to the manufacturer’s protocol (SBI, MZIPxxxPA-1). The infected cells were then incubated with 2.5 μg/mL puromycin for two weeks until stable clones were obtained. The target sequence of shRNA-CBS was 5′-GTAGTTCCGCACTGAGTCG-3′, which has been used previously. The scramble control was 5′-TCCGCAGGTATGCACGCGT-3′.
(§3) Figure S12. CH004 inhibits the proliferation of cells via specifically targeting hCBS. (A-B) Dose-dependent curves of CH004 on the cell viability of CBS-stably-expressed HEK293T (A) or CBS-knockdown cells (B). Percentages of cell viability of CH004 obtained in Figure 4b were fitted to the non-linear equation using GraphPad Prism 5 to get the IC50 values of CH004 in respective cell lines (●, 293T-CBS WT cells; ○, 293T-EV; ▲, 293T-shCBS; △, 293T-shNT). Means ± SDs (n=3). […] HEK293T cells stably expressing of the lentiviral shRNA targeting CBS (shCBS) or control shRNA (shNT) were seeded at the density of ~ 3,000 cells per well in 96-well plates and the cell images in the bright field were acquired at indicated times by Image Xpress Micro® XLS (Molecular Devices, Sunnyvale, CA) under 10 × objective lens. Representative images of two independent experiments (n = 6 for each experiment) are shown in C. The cell numbers of images under 4 × objective lens of one representative experiment were calculated by Image Xpress Software and the data is shown in D. Means ± SDs (n=6). […] HepG2 cells were seeded in a 96-well plate at a density of 20000 cells per well and cultured for 24 h before treatment with indicated concentrations of CH004 for another 24 h. […]

Another test deals with 293T-shCBS cells. Nature of the test: cell viability of stable HEK293T lines. Type of test: cell-based. As to the method: as §1, §2, §3
A further test has as its system 293T-EV cells. Description: cell viability of stable HEK293T lines. Type of test: cell-based. As to conditions: Homo sapiens, HEK-293T, 24 h. As to the method: as §1, §2, §3
The next test relates to 293T-shNT cells. Description: cell viability of stable HEK293T lines. Type of test: cell-based. As to conditions: Homo sapiens, HEK-293T, 24 h. The procedure: as §1, §2, §3
For the next test, the system named is HepG2 cells. Nature of the test: cell death, FITC Annexin V kit, flow cytometry. Type of test: cell-based, human. As to conditions: 40 μM, 12 h. The procedure: Fig. 4 CH004 arrests the cell cycle at the S phase. a CH004 reduces the cell viability of HEK293T and HepG2 cells. HEK293T or HepG2 cells were treated with indicated concentrations of CH004 for 24 h before the cell number was analyzed using the CellTiter96® Aqueous One Solution Cell Proliferation Assay (Promega, Materials and Methods). The means at each concentration of one representative experiment are shown as percentages of DMSO (control, 100%). Means ± SDs (n = 3). b Overexpression of hCBS or knock-down of hCBS counteracts the growth inhibition exerted by CH004 in HEK293T cells. Indicated HEK293T stable cell lines were treated with the CH004 or DMSO for 24 h. Then, the cell viability was quantified with the CellTiter 96® Aqueous One Solution Cell Proliferation Assay under the standard protocol (Promega). […] The efficacy for CBS overexpression and knock-down in HEK293T cells was determined by Western blotting using an anti-CBS antibody (3E1, 1:2000; Abnova). c CH004 induces cell death in HEK293T and HepG2 cells. […] HEK293T cells were incubated with indicated compounds for 12 h, and the DNA content was quantified with propidium iodide to analyze the cell cycle distribution by flow cytometry (e). The cell cycle distributions for HEK293T-shNT and HEK293T-shCBS cells were accordingly analyzed and are shown in f. […]
Background: A flow cytometer gives signals particle by particle.

A further test deals with H22 cells. Nature of the test: cell viability (CellTiter 96 Aqueous One). Type of test: cell-based, mouse. The procedure: To measure cell viability and cytotoxicity, HepG2, HEK293T, Huh-7, H22, Panc-28, HCT116 and MDA-MB-231 cells were seeded at a density of ~ 2 × 10^4 cells per well in 96-well plates (Coring, NY, USA) for one day, followed by incubation with DMSO or various concentrations of tested compound for indicated times. Then, the cells were collected to measure the cell viability using the CellTiter 96® Aqueous One Solution Cell Proliferation Assay (Promega, G3581) according to the standard protocols.
Figure S11. The effects of CH004 on cell viability in various types of cancer cell lines. (A) Dose-dependent curves of CH004 on cell viability of HepG2 cells (▲), HEK293T cells (○). Percentages of cell viability of CH004 obtained in Figure 4a were fitted to the non-linear equation using GraphPad Prism 5 to get the IC50 values of CH004 in respective cell lines. Means ± SDs (n=3). […] (B) MDA-MB-231 (breast cancer cell cline), HCT116 (colon cancer), Panc-28 cells (pancreas cancer), Huh7 cells (hepatocellular carcinoma) and H22 (mouse liver cancer) were incubated with DMSO (control) or indicated concentrations of CH004 for 24 h in a 96-well plate before assessing cell viability using the CellTiter96® Aqueous One Solution Cell Proliferation Assay (Promega). The data are shown as percentages of control (DMSO, 100%). Means ± SDs (n=3). (C) The dose-dependent curve of CH004 on cell viability. […]

Structures are written as SMILES.

Usually IC50 stands for the concentration needed to halve the response being measured. A low value points to inhibition by little substance. For the compound `Cn1nc(Cc2ccccc2)nc2c(=O)n(C)c(=O)nc1-2` [CH004, 3-benzyl-1,6-dimethylpyrimido[5,4-e][1,2,4]triazine-5,7(1H,6H)-dione], the “counteraction of inhibitory effect by overexpression of CBS” value in the test on 293T-CBS WT cells (293T-CBS WT vs 293T-EV) was 3 fold. The IC50 with 293T-CBS WT cells (Homo sapiens, HEK-293T, 24 h) was 35.5 ± 1.2 µM; in the test with 293T-shCBS cells (Homo sapiens, HEK-293T, 24 h) it was 43.2 ± 8.3 µM; in the test with 293T-EV cells, 9.6 ± 1.6 µM; in the test on 293T-shNT cells, 2600 ± 500 nM; in the test with H22 cells (24 h) it was roughly 13 µM; in the test on H22 cells (Mus musculus, H22, 24 h) it was 12.9 ± 0.7 µM. The “increase of IC50 by CBS knock-down” value in the test on 293T-shCBS cells (293T-shCBS vs 293T-shNT) is 15 fold. In the test with HepG2 cells, the “increase in cell death” value is ~ 80%.

For the origin of these results see article PMC6158189, “A pharmacological probe identifies cystathionine β-synthase as a new negative regulator for ferroptosis” (Cell Death & Disease, 2018).
